Reference: PMC6750642, “Direct Measurement of Amorphous Solubility” (Analytical Chemistry, 2019)
Like-named read-outs stand apart in the source and are kept apart here. Marks after values point to notes of the source that are not given here.

Columns and labels:
[1] = Theoretical estimation of DS by the Hoffman method from DSC and DVS data; format: physicochemical
Experimental: Samples of 5–10 mg were tightly packed into standard aluminum crucibles (40 μL) with pierced lids. The samples were equilibrated at 25 °C for 3 min and then linearly heated with a heating rate of 10 °C/min to 20 °C above their respective melting points. Measurements of both amorphous and crystalline samples were recorded in triplicate, and thermal events were analyzed using the STARe software (Mettler-Toledo, Greifensee, Switzerland). Temperatures and melting enthalpies were used to estimate the free energy difference between the amorphous and crystalline forms.
The water sorption isotherms of the five amorphous drug samples were determined using the method previously described by Murdande et al.[10] A VTI-SA+ Vapor Sorption Analyzer (TA Instruments, New Castle, DE, USA) was used to measure the moisture sorption profiles of the amorphous samples. Approximately 10 mg of amorphous sample was placed into a glass holder. To reduce the possibility of sample crystallization during the measurement, no drying step was used. The DVS measurements were performed at 25 °C from 0 to 95% relative humidity (in 10% steps up to 90%). The equilibrium criterion was 0.001% weight change in 5 min with a maximum step time of 150 min. The instrument is calibrated once a month.
According to Hoffman, the difference in Gibbs free energy (ΔG) between the crystalline and the amorphous form can be estimated using eq 4.[15]Hm, Tm, and T are the melting enthalpy of the crystalline form, the melting temperature of the crystalline form, and the experimental temperature measured in Kelvin, respectively. Using the ΔG estimation, the maximum DS due to amorphization was predicted according to Hancock and Parks[9] and corrected for the impact of water on the amorphous solute as proposed by Murdande et al. through eq 5.[10]R and exp(−I(a2)) are the gas constant and a correction factor obtained from DVS measurements, as shown by Murdande et al.[10]

[2] = Dynamic water sorption (DVS) of amorphous samples; format: physicochemical; details: above RH 80%, 25 °C
[3] = Image-based single particle analysis (SPA) solubility measurement of amorphous and crystalline samples; format: physicochemical; details: for DS (degree of supersaturation, amorphous vs crystalline solubility), SPA method: Milli-Q ultrapure water, type 1
Experimental: The constant flow continuously displaces drug molecules from the surface of the dissolving particle. […] (Figure 1). The solubilities of all five crystalline and amorphous samples were measured in triplicate in Milli-Q water. […] The obtained solubility values, therefore, were the average of three independent measurements, where at least ten particles per single measurement were analyzed. Additionally, amorphous IND was also measured in HCl buffer pH 2.0 in the presence of 0.1% (w/v) polyvinylpyrolidone (PVP). The additional measurement using PVP was performed in order to assess the need for a crystallization inhibitor in the SPA experiments. The solubilities of the amorphous and crystalline samples were measured in Milli-Q water and USP buffers as soon as the solvent came in contact with particles.

[4] = cited from earlier work
[5] = cited from earlier work; remark: listed apart in the source

Question: What does the source list for `OCCN(CCO)c1nc(N2CCCCC2)c2nc(N(CCO)CCO)nc(N3CCCCC3)c2n1` [DIP, Dipyridamole]?
Answer: DS, theoretical estimation (Hoffman method with correction for the effect of water on the amorphous solute) [1]: 6.6; DS, theoretical estimation based solely on ΔG, without the correction for the adsorbed water [1]: 15.2; sample mass loss in DVS experiment (crystallization, water expelled) [2]: 0.39%; DS (degree of supersaturation, amorphous vs crystalline solubility), SPA method [3]: 15.3; DS, literature, theoretical estimation [4]: 10 ^k

Question: Which results are given for `Cc1ccc(-c2cc(C(F)(F)F)nn2-c2ccc(S(N)(=O)=O)cc2)cc1` [CEL, Celecoxib]?
Answer: DS, literature, dissolution in water ([5]; distilled water): 3.1 ^c^, ^h; DS, theoretical estimation (Hoffman method with correction for the effect of water on the amorphous solute) [1]: 21.7; DS (degree of supersaturation, amorphous vs crystalline solubility), SPA method [3]: 18.9; DS range reported in the literature ([4]; temperature range of 34–75 °C): 7–21

Question: For `COc1ccc2c(c1)c(CC(=O)O)c(C)n2C(=O)c1ccc(Cl)cc1` [IND, indomethacin], which “DS, literature, dissolution in water” value ([5]; deionized water) is on record?
Answer: 4.9 ^d^, ^i

Question: What about the “DS, theoretical estimation (Hoffman method with correction for the effect of water on the amorphous solute)” value [1] of the same molecule?
Answer: 18.7

Question: What about the “DS (degree of supersaturation, amorphous vs crystalline solubility), SPA method” value [3] of the same molecule?
Answer: 20.4

Question: What about the “effect of PVP in the dissolution medium on the solubility of the amorphous form, SPA method” value ([3]; USP HCl buffer pH 2.0 with vs without PVP 0.1% (w/v)) of the same molecule?
Answer: did not affect

Question: And the “DS, literature, theoretical estimation” value [4]?
Answer: 20.8 ^i

Question: Which results are given for `C#C[C@]1(O)CC[C@H]2[C@@H]3CCC4=Cc5oncc5C[C@]4(C)[C@H]3CC[C@@]21C` [DAN, Danazol]?
Answer: DS, literature, dissolution in water ([5]; deionized water): 3.0 ^d^, ^i; DS, theoretical estimation (Hoffman method with correction for the effect of water on the amorphous solute) [1]: 23.9; DS, literature, theoretical estimation [4]: 26.5 ^i

Question: What does the source list for `COC1=CC(=O)C[C@@H](C)[C@]12Oc1c(Cl)c(OC)cc(OC)c1C2=O` [GRI, griseofulvin]?
Answer: DS, literature, dissolution in water ([5]; deionized water): 1.4 ^d^, ^i; DS, theoretical estimation (Hoffman method with correction for the effect of water on the amorphous solute) [1]: 34.6; DS (degree of supersaturation, amorphous vs crystalline solubility), SPA method [3]: 29.8; DS, literature, theoretical estimation ([4]; approach by Almeida et al.): 30.9; DS, literature, theoretical estimation [4]: 29.1
